The results in this text go back to US11572590B2, “Methods for evaluating tumor cell spheroids using 3D microfluidic cell culture device” (Dana-Farber Cancer Institute, Inc., priority 2017, dated 2023).

Assay in all cases: SelectScreen Kinase Profiling, single point inhibition and IC50 for off-target kinases
Common to all, as to assay type: biochemical

Assay [1] has as its target off-target kinases (Homo sapiens, UniProt P19525). The settings on record: EIF2AK2 (PKR), LanthaScreen Binding. On the technique in general: Time-resolved FRET reads energy transfer from a long-lived donor to a nearby acceptor.
Assay [2] deals with off-target kinases (Homo sapiens, UniProt P41279). The settings on record: MAP3K8 (COT), ZLYTE, ATP 100.
Assay [3] has as its target T1, off-target kinases (Homo sapiens, UniProt Q9HBY8).
T1 sequence (Q9HBY8 1-367): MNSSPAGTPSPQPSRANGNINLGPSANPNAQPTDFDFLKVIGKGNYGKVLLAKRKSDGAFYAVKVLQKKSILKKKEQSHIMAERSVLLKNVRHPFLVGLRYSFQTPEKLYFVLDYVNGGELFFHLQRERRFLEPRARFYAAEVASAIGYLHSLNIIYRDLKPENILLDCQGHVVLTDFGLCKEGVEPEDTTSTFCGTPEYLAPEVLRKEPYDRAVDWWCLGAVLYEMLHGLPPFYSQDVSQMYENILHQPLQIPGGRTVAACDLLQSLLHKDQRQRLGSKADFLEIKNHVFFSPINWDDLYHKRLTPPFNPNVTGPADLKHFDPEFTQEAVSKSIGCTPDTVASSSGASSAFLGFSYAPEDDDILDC
Particulars: SGK2, ZLYTE, ATP Km app.

Assay [4] addresses T2, off-target kinases (Homo sapiens, UniProt O14757).
T2 sequence (O14757 1-476): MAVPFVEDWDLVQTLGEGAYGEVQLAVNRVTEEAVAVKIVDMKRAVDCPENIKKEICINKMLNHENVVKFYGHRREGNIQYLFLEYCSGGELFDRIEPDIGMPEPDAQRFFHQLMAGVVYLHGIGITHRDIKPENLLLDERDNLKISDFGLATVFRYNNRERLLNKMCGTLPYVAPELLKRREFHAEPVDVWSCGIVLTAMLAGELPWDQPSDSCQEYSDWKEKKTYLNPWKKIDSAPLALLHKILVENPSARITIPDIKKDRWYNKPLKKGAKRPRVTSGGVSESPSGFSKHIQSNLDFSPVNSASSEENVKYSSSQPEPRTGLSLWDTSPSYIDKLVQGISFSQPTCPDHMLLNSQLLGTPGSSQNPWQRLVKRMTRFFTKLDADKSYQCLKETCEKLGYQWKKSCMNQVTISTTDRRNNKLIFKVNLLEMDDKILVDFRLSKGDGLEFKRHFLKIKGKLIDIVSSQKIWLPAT
Particulars: CHEK1 (CHK1), ATP Km app, ZLYTE.

In assay [5] the target is off-target kinases (Homo sapiens, UniProt P11309). The settings on record: PIM1, ZLYTE, ATP Km app.

Read-outs that look alike come from different tables or passages of the source.

Sequence of off-target kinases (Homo sapiens, UniProt P41279) (P41279 whole entry): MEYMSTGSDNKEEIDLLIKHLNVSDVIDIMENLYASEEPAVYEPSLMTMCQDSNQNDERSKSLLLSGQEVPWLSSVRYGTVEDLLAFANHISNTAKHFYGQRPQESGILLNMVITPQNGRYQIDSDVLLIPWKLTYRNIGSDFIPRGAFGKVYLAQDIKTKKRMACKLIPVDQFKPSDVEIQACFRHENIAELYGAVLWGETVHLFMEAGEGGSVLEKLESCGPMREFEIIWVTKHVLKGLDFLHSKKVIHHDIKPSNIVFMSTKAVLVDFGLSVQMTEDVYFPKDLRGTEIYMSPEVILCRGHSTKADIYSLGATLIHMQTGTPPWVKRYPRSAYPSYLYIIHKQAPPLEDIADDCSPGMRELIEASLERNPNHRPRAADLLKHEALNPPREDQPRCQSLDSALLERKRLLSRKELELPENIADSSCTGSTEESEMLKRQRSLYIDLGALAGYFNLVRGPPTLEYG
Sequence of off-target kinases (Homo sapiens, UniProt P11309) (P11309 whole entry): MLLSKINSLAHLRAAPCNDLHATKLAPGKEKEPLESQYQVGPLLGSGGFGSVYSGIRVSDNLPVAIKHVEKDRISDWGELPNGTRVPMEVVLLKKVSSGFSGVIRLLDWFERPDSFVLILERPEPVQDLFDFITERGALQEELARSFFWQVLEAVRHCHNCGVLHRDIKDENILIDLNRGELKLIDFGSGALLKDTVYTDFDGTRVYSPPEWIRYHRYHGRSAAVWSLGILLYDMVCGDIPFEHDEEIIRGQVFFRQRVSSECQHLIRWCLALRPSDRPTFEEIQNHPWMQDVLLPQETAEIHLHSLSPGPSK
Sequence of off-target kinases (Homo sapiens, UniProt P19525) (P19525 whole entry): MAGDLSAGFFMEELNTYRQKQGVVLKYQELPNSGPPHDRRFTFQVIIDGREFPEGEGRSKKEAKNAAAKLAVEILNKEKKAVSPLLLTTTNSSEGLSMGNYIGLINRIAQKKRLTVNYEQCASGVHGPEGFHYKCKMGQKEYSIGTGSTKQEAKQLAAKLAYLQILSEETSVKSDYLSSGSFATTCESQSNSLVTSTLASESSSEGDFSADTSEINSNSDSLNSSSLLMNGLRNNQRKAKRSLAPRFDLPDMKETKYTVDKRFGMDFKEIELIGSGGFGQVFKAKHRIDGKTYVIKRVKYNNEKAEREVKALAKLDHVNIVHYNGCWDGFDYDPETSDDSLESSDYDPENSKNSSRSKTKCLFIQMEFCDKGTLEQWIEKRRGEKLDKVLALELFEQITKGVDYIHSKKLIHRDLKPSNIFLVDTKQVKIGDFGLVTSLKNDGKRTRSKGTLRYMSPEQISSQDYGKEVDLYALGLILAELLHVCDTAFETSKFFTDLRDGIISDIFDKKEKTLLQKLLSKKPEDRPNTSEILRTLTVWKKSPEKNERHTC

Take `N#Cc1cc(-c2ncnc(Nc3ccc(N4CCN(C5COC5)CC4)cc3)n2)ccc1OC1CCOCC1` [Compound 1, 5-(4-((4-(4-(oxetan-3-yl)piperazin-1-yl)phenyl)amino)-1,3,5-triazin-2-yl)-2-((tetrahydro-2H-pyran-4-yl)oxy)benzonitrile]: the inhibition was 90% on off-target kinases [1] (read-out: % Inhibition 1); 89% on off-target kinases [1] (read-out: % Inhibition 2); 89% on off-target kinases [1] (read-out: % Inhibition Avg); 19% at off-target kinases [2] (read-out: % Inhibition 1); 11% at off-target kinases [2] (read-out: % Inhibition 2); 15% on off-target kinases [2] (read-out: % Inhibition Avg). For the same compound, the inhibition on off-target kinases [3] (read-out: % Inhibition 1) amounted to 7%; at off-target kinases [3] (read-out: % Inhibition 2), 12%; on off-target kinases [3] (read-out: % Inhibition Avg) it was 10%; at off-target kinases [4] (read-out: % Inhibition 1) it was 78%; at off-target kinases [4] (read-out: % Inhibition 2), 78%; at off-target kinases [4] (read-out: % Inhibition Avg) it was 78%. The values for the inhibition on off-target kinases [5] (read-out: % Inhibition 1), on off-target kinases [5] (read-out: % Inhibition 2) and at off-target kinases [5] (read-out: % Inhibition Avg) were 11%, 3% and 7%, respectively.

For orientation: inhibition means the change of the read-out against control, counted positive when it falls.
